Measured values taken from patent publication EP0377642B1, “HERBICIDES FOR WEED CONTROL IN RICE” (E.I. DU PONT DE NEMOURS AND COMPANY, priority 1987, dated 1989).
Like-named read-outs stand apart in the source and are kept apart here.

What was measured:
Type in all cases: in vivo
Cyperus iria [1] = assay: Field test with Bensulfuron methyl in direct seeded rice (Table 10); conditions: 10 = complete control
Text: (§1) Methyl 2-[[[[(4-methoxy-6-methyl-1,3,5-triazin-2-yl)amino]carbonyl]amino]sulfonyl]benzoate (Compound 1) and mixtures thereof with other compounds were applied as a spray (using a hand sprayer) to rice (either transplanted or direct seeded) in several rice growing areas in Southeast Asia and in the U.S. Tables 1-28 contain the results of these tests and clearly exemplify the utility of this invention. The details of each application are included in the appropriate table. [drawing 2]

Marsilea crenata = assay: as above; conditions: 10 = complete control
Text: as §1

Sphenoclea zeylanica [2] = assay: as above; conditions: 10 = complete control
Text: as §1

direct seeded rice [3] = assay: Field test with Bensulfuron methyl in direct seeded rice, yield (Table 10)
Text: as §1

direct seeded rice [4] = conditions: 4 GM.A.I./HA; for PHYTO at 2WAA: scale 0-10
Text: as §1

Cyperus difformis [5] = assay: Field test applied at 7 DAS in direct seeded rice (Table 11); conditions: 4 GM.A.I./HA, scale 0-10
Text: as §1

Sphenoclea zeylanica [6] = assay: as above; conditions: 4 GM.A.I./HA, scale 0-10
Text: as §1

Cyperus iria [7] = assay: Field test applied at 18 DAS in direct seeded rice (Table 12); conditions: 4 GM.A.I./HA, scale 0-10
Text: as §1

FIMBRISTYLIS MILIACEA [8] = assay: as above; conditions: 4 GM.A.I./HA, scale 0-10
Text: as §1

Jussiaea linifolia = assay: as above; conditions: 4 GM.A.I./HA, scale 0-10
Text: as §1

Sphenoclea zeylanica [9] = assay: as above; conditions: 4 GM.A.I./HA, scale 0-10
Text: as §1

Cyperus iria [10] = assay: Field test applied at 25 DAS in direct seeded rice (Table 13); conditions: 4 GM.A.I./HA, scale 0-10
Text: as §1

Sphenoclea zeylanica [11] = assay: as above; conditions: 4 GM.A.I./HA, scale 0-10
Text: as §1

direct seeded rice [12] = assay: Field test applied 7 DAS in direct seeded rice in the Philippines, phytotoxicity (Table 14); conditions: 30 DAA
Text: as §1

WEED [13] = assay: Field test applied 7 DAS in direct seeded rice in the Philippines, weed cover (Table 14); conditions: 47 DAA
Text: as §1

[14] = test system: Barnyardgrass (Echinochloa crus-galli); assay: Field test applied 7 DAS in direct seeded rice in the Philippines, cover (Table 14); conditions: 47 DAA
Text: as §1

SEDGE = assay: as above; conditions: 47 DAA
Text: as §1

Cyperus difformis [15] = assay: Herbicidal efficacy with Bensulfuron methyl and 2,4-D in Thailand (Table 18); conditions: 4 GAI/HA; 13 days after treatment
Text: as §1

Sphenoclea zeylanica [16] = assay: as above; conditions: 4 GAI/HA; 13 days after treatment
Text: as §1

rice [17] = assay: as above; conditions: 4 GAI/HA; 13 days after treatment
Text: as §1

Cuperus difformis = assay: Herbicidal efficacy with Bensulfuron methyl and 2,4-D in Thailand (Table 19); conditions: 4 GAI/HA; 13 days after treatment
Text: as §1

Sphenoclea zeylanica [18] = assay: as above; conditions: 4 GAI/HA; 13 days after treatment
Text: as §1

rice [19] = assay: as above; conditions: 4 GAI/HA; 13 days after treatment
Text: as §1

Cuperus iria = assay: Herbicidal efficacy with Bensulfuron methyl and 2,4-D in Thailand (Table 20); conditions: 4 GAI/HA; 14 days after treatment
Text: as §1

FIMBRISTYLIS MILIACEA [20] = assay: as above; conditions: 4 GAI/HA; 14 days after treatment
Text: as §1

Ludwigia linifolia = assay: as above; conditions: 4 GAI/HA; 14 days after treatment
Text: as §1

Sphenoclea zeylanica [21] = assay: as above; conditions: 4 GAI/HA; 14 days after treatment
Text: as §1

rice [22] = assay: as above; conditions: 4 GAI/HA; 14 days after treatment
Text: as §1

rice [23] = assay: Effects in combination with Bensulfuron Methyl and Thiobencarb or Pretilachlor on rice growth (Table 23); conditions: rate 2 g ai/ha; var. Koshihikari, applied 7 days after transplanting, rated 21 days after application
Text: as §1

WEED [24] = assay: Effects in combination with Bensulfuron Methyl and Thiobencarb or Pretilachlor on weed control (Table 24); conditions: rate 2 g ai/ha, scale 0 to 10, treated at 1.0 leaf stage, evaluated four weeks later
Text: as §1

WEED [25] = assay: Effects in combination with Bensulfuron Methyl and Thiobencarb or Pretilachlor on weed control (Table 25); conditions: rate 2 g ai/ha, scale 0 to 10, treated at 2.0 leaf stage, evaluated four weeks later
Text: as §1

In the case of `COC(=O)c1ccccc1S(=O)(=O)NC(=O)Nc1nc(C)nc(OC)n1` [Compound 1, Methyl 2-[[[[(4-methoxy-6-methyl-1,3,5-triazin-2-yl)amino]carbonyl]amino]sulfonyl]benzoate], the “WEEDS CONTROL at 4 WAA CI” value (Cyperus iria [1]; 2 GAI/HA) is reported as 0, the “WEEDS CONTROL at 4 WAA CI” value (Cyperus iria [1]; 4 GAI/HA) is reported as 0 and the “WEEDS CONTROL at 4 WAA MC” value (Marsilea crenata; 2 GAI/HA) is reported as 10. The “WEEDS CONTROL at 4 WAA MC” value (Marsilea crenata; 4 GAI/HA) was 10, the “WEEDS CONTROL at 4 WAA SZ” value (Sphenoclea zeylanica [2]; 2 GAI/HA) was 7.93 and the “WEEDS CONTROL at 4 WAA SZ” value (Sphenoclea zeylanica [2]; 4 GAI/HA) was 9.33. It also gave a YIELD (direct seeded rice [3]; 2 GAI/HA) of 3.62 TONS/HA, a YIELD (direct seeded rice [3]; 4 GAI/HA) of 3.62 TONS/HA and a YIELD (direct seeded rice [4]; 7 DAS) of 4.90 TONS/HA. For the same compound, the “PHYTO at 2WAA” value (direct seeded rice [4]; 7 DAS) was 0, the YIELD (direct seeded rice [4]; 18 DAS) was 4.65 TONS/HA and the “PHYTO at 2WAA” value (direct seeded rice [4]; 18 DAS) was 0. The YIELD (direct seeded rice [4]; 25 DAS) was 5.04 TONS/HA, the “PHYTO at 2WAA” value (direct seeded rice [4]; 25 DAS) was 0 and the “WEED CONTROL at 6 WAA CD” value (Cyperus difformis [5]) was 10. The “WEED CONTROL at 6 WAA SZ” value (Sphenoclea zeylanica [6]) was 10, the “WEED CONTROL at 6 WAA CI” value (Cyperus iria [7]) was 0.33 and the “WEED CONTROL at 6 WAA FM” value (FIMBRISTYLIS MILIACEA [8]) was 0. For the same compound, the “WEED CONTROL at 6 WAA JL” value (Jussiaea linifolia) was 7.67, the “WEED CONTROL at 6 WAA SZ” value (Sphenoclea zeylanica [9]) was 6.33 and the “WEED CONTROL at 6 WAA CI” value (Cyperus iria [10]) was 0. For the same compound, the “WEED CONTROL at 6 WAA SZ” value (Sphenoclea zeylanica [11]) was 9.53, the “PHYTO (1-9)” value (direct seeded rice [12]; 1.65 G AI/HA) was 2 and the “PHYTO (1-9)” value (direct seeded rice [12]; 2.40 G AI/HA) was 2.3. For the same compound, the “PHYTO (1-9)” value (direct seeded rice [12]; 3.33 G AI/HA) was 3.3, the “% WEED COVER” value (WEED [13]; 1.65 G AI/HA) was 29% and the “% WEED COVER” value (WEED [13]; 2.40 G AI/HA) was 35%. The “% WEED COVER” value (WEED [13]; 3.33 G AI/HA) was 35%, the “% BYG COVER” value ([14]; 1.65 G AI/HA) was 26% and the “% BYG COVER” value ([14]; 2.40 G AI/HA) was 35%. The “% BYG COVER” value ([14]; 3.33 G AI/HA) was 35%, the “% SEDGE COVER” value (SEDGE; 1.65 G AI/HA) was 5% and the “% SEDGE COVER” value (SEDGE; 2.40 G AI/HA) was 6%. The “% SEDGE COVER” value (SEDGE; 3.33 G AI/HA) was 4%, the “% CONTROL OR INJURY CD” value (Cyperus difformis [15]) was 100% and the “% CONTROL OR INJURY SZ” value (Sphenoclea zeylanica [16]) was 98%. For the same compound, the “% CONTROL OR INJURY RICE” value (rice [17]) was 0%, the “% CONTROL OR INJURY CD” value (Cuperus difformis) was 100% and the “% CONTROL OR INJURY SZ” value (Sphenoclea zeylanica [18]) was 93%. The “% CONTROL OR INJURY RICE” value (rice [19]) was 0%, the “% CONTROL OR INJURY CI” value (Cuperus iria) was 0% and the “% CONTROL OR INJURY FM” value (FIMBRISTYLIS MILIACEA [20]) was 0%. For the same compound, the “% CONTROL OR INJURY LL” value (Ludwigia linifolia) was 67%, the “% CONTROL OR INJURY SZ” value (Sphenoclea zeylanica [21]) was 60% and the “% CONTROL OR INJURY RICE” value (rice [22]) was 0%. The “CROP TOLERANCE DW (Dry weight relative to untreated check)” value (rice [23]) was 73%, the “CROP TOLERANCE PH (Plant height relative to untreated check)” value (rice [23]) was 86% and the “CROP TOLERANCE VA (Visual crop injury)” value (rice [23]) was 3%. For the same compound, the “WEED CONTROL RATINGS CD” value (WEED [24]; Cyperus difformis) was 10, the “WEED CONTROL RATINGS CS” value (WEED [24]; Cyperus serotinus) was 1 and the “WEED CONTROL RATINGS EO” value (WEED [24]; Echinochloa oryzicola) was 1. The “WEED CONTROL RATINGS BL” value (WEED [24]; Lindernia pyxidaria) was 10, the “WEED CONTROL RATINGS MV” value (WEED [24]; Monochoria vaginalis) was 10 and the “WEED CONTROL RATINGS SP” value (WEED [24]; Sagittaria pygmaea) was 8. The “WEED CONTROL RATINGS SJ” value (WEED [24]; Scirpus juncoides) was 7, the “WEED CONTROL RATINGS CD” value (WEED [25]; Cyperus difformis) was 7 and the “WEED CONTROL RATINGS CS” value (WEED [25]; Cyperus serotinus) was 0. For the same compound, the “WEED CONTROL RATINGS EO” value (WEED [25]; Echinochloa oryzicola) was 1, the “WEED CONTROL RATINGS BL” value (WEED [25]; Lindernia pyxidaria) was 10 and the “WEED CONTROL RATINGS MV” value (WEED [25]; Monochoria vaginalis) was 10. For the same compound, the “WEED CONTROL RATINGS SP” value (WEED [25]; Sagittaria pygmaea) was 8 and the “WEED CONTROL RATINGS SJ” value (WEED [25]; Scirpus juncoides) was 6.
